Experimental data: patent US20240199542A1, “SUBSTITUTED PYRROLIDIN-2-ONES, SALTS THEREOF AND THEIR USE AS HERBICIDALLY ACTIVE SUBSTANCES” (Bayer Aktiengesellschaft, priority 2021, published 2024)

Columns and labels:
Type in all cases: in vivo
Veronica persica (VERPE) = assay: Herbicidal pre-emergence action; settings: 1280 g/ha, graded after ca. 3 weeks
Source text: (§1) Seeds of mono- and dicotyledonous weed plants and crop plants were sown, in plastic or organic planting pots, in sandy loam and covered with soil. The compounds according to the invention, formulated in the form of wettable powders (WP) or as emulsifiable concentrates (EC), were applied to the surface of the covering soil as aqueous suspension or emulsion, with the addition of 0.5% of an additive, at an application rate of 600 1 of water/ha (converted).
(§2) Following treatment, the pots were placed in a greenhouse and kept under optimum growth conditions for the test plants. The visual grading of the damage to the test plants was carried out after ca. 3 weeks in comparison to untreated controls (herbicidal effect in percent (%): 100% effect=plants have died off, 0% effect=as control plants).
(§3) Tables A1 to A16, below, show the effects of selected compounds of the general formula (I) according to table 1 on various harmful plants and an application rate corresponding to 1280 g/ha or lower obtained by the experimental procedure mentioned above.

Setaria viridis (SETVI) [1] = assay: Herbicidal pre-emergence action; settings: 1280 g/ha, graded after ca. 3 weeks
Source text: as §1, §2, §3

Avena fatua (AVEFA) [2] = assay: Herbicidal pre-emergence action; settings: 1280 g/ha, graded after ca. 3 weeks
Source text: as §1, §2, §3

[3] = test system: Echinochloa crus-galli (ECHCG); assay: Herbicidal pre-emergence action; settings: 1280 g/ha, graded after ca. 3 weeks
Source text: as §1, §2, §3

[4] = test system: Lolium multiflorum (LOLMU); assay: Herbicidal pre-emergence action; settings: 1280 g/ha, graded after ca. 3 weeks
Source text: as §1, §2, §3

[5] = test system: Alopecurus myosuroides (ALOMY); assay: Herbicidal pre-emergence action; settings: 1280 g/ha, graded after ca. 3 weeks
Source text: as §1, §2, §3

[6] = test system: Polygonum convolvulus (POLCO); assay: Herbicidal pre-emergence action; settings: 1280 g/ha, graded after ca. 3 weeks
Source text: as §1, §2, §3

Setaria viridis (SETVI) [7] = assay: Herbicidal post-emergence action; settings: 1280 g/ha, assessed after ca. 3 weeks
Source text: (§4) Seeds of mono- and dicotyledonous weed plants and crop plants were sown, in plastic or organic planting pots, in sandy loam, covered with soil and grown in a greenhouse under controlled growth conditions. 2 to 3 weeks after sowing, the test plants were sprayed in the single-leaf stage. The compounds according to the invention, formulated in form of wettable powders (WP) or as emulsifiable concentrates (EC), were sprayed onto the green plant parts as aqueous suspension or emulsion, with the addition of 0.5% of an additive, at an application rate of 600 1 of water/ha (converted). The test plants were placed in the greenhouse for ca. 3 weeks under optimum growth conditions, and then the effect of the preparations was assessed visually in comparison with untreated controls (herbicidal effect in percent (%): 100% effect=plants have died off, 0% effect=as control plants).
(§5) Tables B1 to B16 below show the effects of selected compounds of the general formula (I) according to table 1 on various harmful plants and an application rate corresponding to 1280 g/ha or 320 g/ha obtained by the experimental procedure mentioned above.

Avena fatua (AVEFA) [8] = assay: Herbicidal post-emergence action; settings: 1280 g/ha, assessed after ca. 3 weeks
Source text: as §4, §5

[9] = test system: Echinochloa crus-galli (ECHCG); assay: Herbicidal post-emergence action; settings: 1280 g/ha, assessed after ca. 3 weeks
Source text: as §4, §5

[10] = test system: Lolium multiflorum (LOLMU); assay: Herbicidal post-emergence action; settings: 1280 g/ha, assessed after ca. 3 weeks
Source text: as §4, §5

[11] = test system: Alopecurus myosuroides (ALOMY); assay: Herbicidal post-emergence action; settings: 1280 g/ha, assessed after ca. 3 weeks
Source text: as §4, §5

[12] = test system: Cyperus esculentus (CYPES); assay: Herbicidal pre-emergence action; settings: 1280 g/ha, graded after ca. 3 weeks
Source text: as §1, §2, §3

Structure (SMILES) | Pre-emergence activity against VERPE (Veronica persica (VERPE)) [%] | Pre-emergence activity against SETVI (Setaria viridis (SETVI) [1]) [%] | Pre-emergence activity against AVEFA (Avena fatua (AVEFA) [2]) [%] | Pre-emergence activity against ECHCG [3] [%] | Pre-emergence activity against LOLMU [4] [%] | Pre-emergence activity against ALOMY [5] [%] | Pre-emergence activity against POLCO [6] [%] | Post-emergence activity against SETVI (Setaria viridis (SETVI) [7]) [%] | Post-emergence activity against AVEFA (Avena fatua (AVEFA) [8]) [%] | Post-emergence activity against ECHCG [9] [%] | Post-emergence activity against LOLMU [10] [%] | Post-emergence activity against ALOMY [11] [%] | Pre-emergence activity against CYPES [12] [%]
Cc1ccc2c(c1)C(NC(=O)CC1CCC(=O)N1Cc1cccc(F)c1F)C(C)C2 (mixture of isomers) [Example I-106] | 80 | – | – | – | – | – | – | – | – | – | – | – | –
COC(=O)CC1CCC(=O)N1Cc1cccc(F)c1F (racemic) [Example I-008] | – | 90 | 100 | 90 | 80 | 90 | 90 | 80 | 90 | 90 | 80 | 80 | –
CC(C)(C)COC(=O)CC1CCC(=O)N1Cc1cccc(F)c1F (racemic) [Example I-018] | 90 | 90 | 100 | 90 | 90 | 90 | 80 | – | 80 | 90 | 80 | 80 | 80
CCOC(=O)CC1CCC(=O)N1Cc1cccc(F)c1F (racemic) [Example I-019] | – | 90 | 100 | 90 | 90 | 90 | 90 | – | 100 | 80 | 90 | 80 | 80
O=C(CC1CCC(=O)N1Cc1cccc(F)c1F)OCC1CC1 (racemic) [Example I-020] | 80 | – | 100 | 80 | 80 | 80 | – | – | 90 | 90 | 80 | 80 | –
O=C(CC1CCC(=O)N1Cc1cccc(F)c1F)OCCSc1ccccc1 (racemic) [Example I-022] | – | 80 | 90 | – | – | 90 | – | 90 | 90 | 90 | 80 | – | –
O=C(CC1CCC(=O)N1Cc1cccc(F)c1F)OC1CCC1 (racemic) [Example I-024] | – | 80 | 100 | 80 | 90 | 90 | 80 | 80 | 90 | 90 | 90 | 90 | 90
CCCC(C)OC(=O)CC1CCC(=O)N1Cc1cccc(F)c1F (racemic) [Example I-028] | 80 | 80 | 100 | 80 | 90 | 80 | – | – | 80 | 80 | 80 | 80 | 80
CCC(C)OC(=O)CC1CCC(=O)N1Cc1cccc(F)c1F (racemic) [Example I-030] | 90 | 80 | 100 | 80 | 80 | 90 | 80 | – | 80 | 80 | 80 | 80 | –
COc1ccc(OCCOC(=O)CC2CCC(=O)N2Cc2cccc(F)c2F)cc1 (racemic) [Example I-031] | – | – | 100 | 80 | – | 90 | 80 | 80 | – | 90 | 90 | 90 | 80
O=C(CC1CCC(=O)N1Cc1cccc(F)c1F)OCCS(=O)(=O)c1ccccc1 (racemic) [Example I-032] | 80 | – | 100 | 80 | – | 90 | – | – | – | 90 | 90 | 80 | 80
CC(C)C(C)OC(=O)CC1CCC(=O)N1Cc1cccc(F)c1F (racemic) [Example I-036] | 90 | 100 | 100 | 80 | 80 | 90 | 80 | – | 90 | 90 | – | 80 | –
NC(=O)CC1CCC(=O)N1Cc1cccc(F)c1F (racemic) [Example I-057] | – | 80 | 80 | – | – | 90 | 80 | – | – | – | – | – | 100
Cc1ccc(CN2C(=O)CCC2CC(=O)NS(C)(=O)=O)c(F)c1F (racemic) [Example I-087] | 100 | – | – | – | – | 90 | – | – | – | – | – | – | –
O=C(CC1CCC(=O)N1Cc1cccc(Cl)c1Cl)NS(=O)(=O)C(F)F (racemic) [Example I-095] | 80 | – | – | – | – | – | – | – | – | – | – | – | –
O=C(CC1CCC(=O)N1Cc1cccc(F)c1F)NCc1ccc(Cl)nc1 (racemic) [Example I-102] | 90 | – | – | – | – | – | 80 | – | – | – | – | – | –
CS(=O)(=O)NC(=O)CC1CCC(=O)N1Cc1cccc(Cl)c1Cl (racemic) [Example I-105] | 90 | – | – | – | – | – | – | – | – | – | – | – | –
CC[C@@H](C)[C@@H](NC(=O)CC1CCC(=O)N1Cc1cccc(F)c1F)C(=O)O (single isomer, unassigned) [Example I-043] | – | 90 | 100 | 90 | 80 | 90 | – | 80 | 80 | 80 | 80 | 80 | –
Cc1nonc1NC(=O)CC1CCC(=O)N1Cc1cccc(F)c1F (stereo not drawn) [Example I-046, 2-[1-[(2,3-difluorophenyl)methyl]-5-oxo-pyrrolidin-2-yl]-N-(4-methyl-1,2,5-oxadiazol-3-yl)acetamide] | 100 | – | 100 | – | – | – | – | – | 90 | – | 80 | – | 100
